Measurements taken from BindingDB's records for patent WO2025049746 (Eikon Therapeutics, 2025).

Tests used:
[1] = target: Bifunctional 3'-5' exonuclease/ATP-dependent helicase WRN (Homo sapiens, UniProt Q14191); experiment: ADP-Glo Kinase Assay
Protocol: ATPase activity was measured using the ADP-Glo Kinase Assay following the manufacturers recommended protocol.

[2] = target: T1, Bifunctional 3'-5' exonuclease/ATP-dependent helicase WRN [480-1251] (UniProt Q14191); experiment: Biochemical Activity Assays
T1 construct: 480-1251
T1 sequence (Q14191 480-1251): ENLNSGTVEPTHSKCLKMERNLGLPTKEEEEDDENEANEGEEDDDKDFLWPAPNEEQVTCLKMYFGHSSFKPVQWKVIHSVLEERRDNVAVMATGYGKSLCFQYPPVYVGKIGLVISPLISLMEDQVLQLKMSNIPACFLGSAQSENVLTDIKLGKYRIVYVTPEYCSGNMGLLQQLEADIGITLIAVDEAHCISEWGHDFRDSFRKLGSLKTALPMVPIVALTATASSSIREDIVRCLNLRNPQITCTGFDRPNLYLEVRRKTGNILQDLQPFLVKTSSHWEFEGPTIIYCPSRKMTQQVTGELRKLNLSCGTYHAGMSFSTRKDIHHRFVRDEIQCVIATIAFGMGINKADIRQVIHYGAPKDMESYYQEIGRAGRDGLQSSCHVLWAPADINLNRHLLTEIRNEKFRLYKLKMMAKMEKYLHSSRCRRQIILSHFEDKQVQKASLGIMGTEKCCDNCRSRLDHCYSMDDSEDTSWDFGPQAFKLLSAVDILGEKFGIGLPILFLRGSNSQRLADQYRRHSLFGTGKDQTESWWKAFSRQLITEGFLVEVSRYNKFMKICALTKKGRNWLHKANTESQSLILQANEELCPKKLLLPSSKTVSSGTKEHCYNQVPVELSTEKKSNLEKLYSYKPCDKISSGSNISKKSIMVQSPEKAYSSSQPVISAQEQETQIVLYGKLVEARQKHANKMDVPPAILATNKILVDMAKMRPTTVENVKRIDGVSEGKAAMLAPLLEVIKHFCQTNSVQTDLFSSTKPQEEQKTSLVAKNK
Protocol: The pure fractions were pooled and desalted/buffer exchanged into storage buffer using a HiTrap desalting column. […] First, WRN alone was pre-incubated with DMSO or compound of interest for 15 minutes. To initiate the reaction, ATP, dsDNA substrate, and ssDNA competitor (ssDNA_comp: […]) were added and incubated at room temperature for 20 minutes at which point DNA unwinding activity was monitored by measuring Cy3 fluorescence. After obtaining the reading, the ATPase activity was measured using the ADP-Glo Kinase Assay following the manufacturers recommended protocol. […] Compounds were assayed in a 10-point dose response in duplicate at a 1% DMSO final assay concentration.

Sequence of Bifunctional 3'-5' exonuclease/ATP-dependent helicase WRN (Q14191 whole entry): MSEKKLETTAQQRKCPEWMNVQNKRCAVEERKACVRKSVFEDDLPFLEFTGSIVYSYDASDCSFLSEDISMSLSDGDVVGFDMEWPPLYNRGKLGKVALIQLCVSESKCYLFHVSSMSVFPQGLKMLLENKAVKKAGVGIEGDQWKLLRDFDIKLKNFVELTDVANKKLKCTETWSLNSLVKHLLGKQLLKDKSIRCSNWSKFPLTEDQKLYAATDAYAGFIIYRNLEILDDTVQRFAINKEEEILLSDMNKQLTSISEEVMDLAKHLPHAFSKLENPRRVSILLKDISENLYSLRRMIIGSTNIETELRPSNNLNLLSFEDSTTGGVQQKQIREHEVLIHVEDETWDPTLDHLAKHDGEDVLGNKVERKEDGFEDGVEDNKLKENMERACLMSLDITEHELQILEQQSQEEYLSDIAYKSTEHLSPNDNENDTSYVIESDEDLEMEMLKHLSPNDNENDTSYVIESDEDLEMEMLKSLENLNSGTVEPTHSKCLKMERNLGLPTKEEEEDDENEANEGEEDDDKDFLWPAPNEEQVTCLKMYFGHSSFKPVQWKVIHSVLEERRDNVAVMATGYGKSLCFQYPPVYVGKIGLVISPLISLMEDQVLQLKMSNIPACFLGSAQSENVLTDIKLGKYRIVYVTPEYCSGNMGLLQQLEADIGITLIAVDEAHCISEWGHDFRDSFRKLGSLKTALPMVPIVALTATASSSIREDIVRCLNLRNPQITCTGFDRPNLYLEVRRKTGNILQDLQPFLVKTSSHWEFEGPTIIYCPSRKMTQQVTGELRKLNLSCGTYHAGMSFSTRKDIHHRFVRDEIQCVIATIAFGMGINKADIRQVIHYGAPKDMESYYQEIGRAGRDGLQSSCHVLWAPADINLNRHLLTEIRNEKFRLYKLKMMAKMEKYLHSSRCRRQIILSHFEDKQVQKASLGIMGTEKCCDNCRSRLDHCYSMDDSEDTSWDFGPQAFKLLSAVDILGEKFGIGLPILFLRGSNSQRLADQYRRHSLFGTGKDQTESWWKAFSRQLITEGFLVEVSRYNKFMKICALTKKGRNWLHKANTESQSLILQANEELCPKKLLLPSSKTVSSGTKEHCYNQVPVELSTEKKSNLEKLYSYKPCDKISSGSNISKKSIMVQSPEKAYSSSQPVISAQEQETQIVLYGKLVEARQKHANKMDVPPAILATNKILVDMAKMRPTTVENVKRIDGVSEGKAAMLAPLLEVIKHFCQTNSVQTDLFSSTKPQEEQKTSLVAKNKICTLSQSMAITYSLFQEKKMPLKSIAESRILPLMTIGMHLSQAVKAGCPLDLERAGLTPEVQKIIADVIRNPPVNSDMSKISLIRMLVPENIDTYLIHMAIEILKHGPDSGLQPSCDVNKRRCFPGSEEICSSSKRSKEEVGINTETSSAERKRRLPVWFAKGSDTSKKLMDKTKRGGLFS

SMILES	IC50 [1] [nM]	IC50 [2] [nM]
CCc1c(N2CCN(C(=O)c3ncccc3N)CC2)c(=O)n2nc(C3=CCOCC3)nc2n1CC(=O)Nc1ccc(C(F)(F)F)cc1Cl [WO2025049746, Example 34]	45.1	28.5
CCc1c(N2CCN(C(=O)c3cccc[n+]3[O-])CC2)c(=O)n2nc(C3=CCOCC3)nc2n1CC(=O)Nc1ccc(C(F)(F)F)cc1Cl [WO2025049746, Example 35]	130	68.4
CCc1c(N2CCN(C(=O)c3nccc(C)c3N)CC2)c(=O)n2nc(C3=CCOCC3)nc2n1CC(=O)Nc1ccc(C(F)(F)F)cc1Cl [WO2025049746, Example 36]	42.9	38.3
CCc1c(N2CCN(C(=O)c3ncccc3N=S3(=O)CCC3)CC2)c(=O)n2nc(C3=CCOCC3)nc2n1CC(=O)Nc1ccc(C(F)(F)F)cc1Cl [WO2025049746, Example 37]	86.3	56.2
CCc1c(N2CCN(C(=O)c3ccccc3NS(C)(=O)=O)CC2)c(=O)n2nc(C3=CCOCC3)nc2n1CC(=O)Nc1ccc(C(F)(F)F)cc1Cl [WO2025049746, Example 38]	70.8	60.3
CCc1c(N2CCN(C(=O)c3ccccc3NS(=O)(=O)C3CC3)CC2)c(=O)n2nc(C3=CCOCC3)nc2n1CC(=O)Nc1ccc(C(F)(F)F)cc1Cl [WO2025049746, Example 39]	45.7	33
CCc1c(N2CCN(C(=O)c3ccccc3NC(=O)c3ccn[nH]3)CC2)c(=O)n2nc(C3=CCOCC3)nc2n1CC(=O)Nc1ccc(C(F)(F)F)cc1Cl [WO2025049746, Example 40]	125	62.2
CCC1=C(N2CCN(C(=O)C3=C4NN=CC4CC=N3)CC2)C(=O)N2N=C(C3CCOCC3)NC2N1CC(=O)Nc1ccc(C(F)(F)F)cc1Cl (stereo unspecified) [WO2025049746, Example 41]	83.9	56.9
CCc1c(N2CCN(C(=O)c3csc4cncnc34)CC2)c(=O)n2nc(C3=CCOCC3)nc2n1CC(=O)Nc1ccc(C(F)(F)F)cc1Cl [WO2025049746, Example 43]	63.9	41.9
CCc1c(N2CCN(C(=O)c3cccc4c3ncn4C)CC2)c(=O)n2nc(C3=CCOCC3)nc2n1CC(=O)Nc1ccc(C(F)(F)F)cc1Cl [WO2025049746, Example 44]	83.9	51.7
CCc1c(N2CCN(C(=O)c3ccnc4cc[nH]c34)CC2)c(=O)n2nc(C3=CCOCC3)nc2n1CC(=O)Nc1ccc(C(F)(F)F)cc1Cl [WO2025049746, Example 46]	52.1	36
CCc1c(N2CCN(C(=O)c3cncc4cc[nH]c34)CC2)c(=O)n2nc(C3=CCOCC3)nc2n1CC(=O)Nc1ccc(C(F)(F)F)cc1Cl [WO2025049746, Example 47]	31.8	23.9
CCc1c(N2CCN(C(=O)c3nccc4nn[nH]c34)CC2)c(=O)n2nc(C3=CCOCC3)nc2n1CC(=O)Nc1ccc(C(F)(F)F)cc1Cl [WO2025049746, Example 48]	27	19.8
CCc1c(N2CCN(C(=O)c3cccc4c3nnn4C)CC2)c(=O)n2nc(C3=CCOCC3)nc2n1CC(=O)Nc1ccc(C(F)(F)F)cc1Cl [WO2025049746, Example 49]	130	46.7
CCc1c(N2CCN(C(=O)c3cccn4ccnc34)CC2)c(=O)n2nc(C3=CCOCC3)nc2n1CC(=O)Nc1ccc(C(F)(F)F)cc1Cl [WO2025049746, Example 50]	156	79.4
CCc1c(N2CCN(C(=O)c3cccc4[nH]c(=O)[nH]c34)CC2)c(=O)n2nc(C3=CCOCC3)nc2n1CC(=O)Nc1ccc(C(F)(F)F)cc1Cl [WO2025049746, Example 51]	57.1	43.9
CCc1c(N2CCN(C(C)=O)CC2)c(=O)n2nc(C3=CCOCC3)nc2n1CC(=O)Nc1ccc(C(F)(F)F)cc1Cl [WO2025049746, Example 52]	39.4	28.6
CCc1c(N2CCN(C(=O)CO)CC2)c(=O)n2nc(C3=CCOCC3)nc2n1CC(=O)Nc1ccc(C(F)(F)F)cc1Cl [WO2025049746, Example 53]	440	254
CCc1c(N2CCN(C(=O)C(C)O)CC2)c(=O)n2nc(C3=CCOCC3)nc2n1CC(=O)Nc1ccc(C(F)(F)F)cc1Cl (stereo unspecified) [WO2025049746, Example 54]	182	46.1
CCc1c(N2CCN(C(=O)C3(CO)CC3)CC2)c(=O)n2nc(C3=CCOCC3)nc2n1CC(=O)Nc1ccc(C(F)(F)F)cc1Cl [WO2025049746, Example 55]	5740	3350
CCc1c(N2CCN(C(=O)C(F)(F)CO)CC2)c(=O)n2nc(C3=CCOCC3)nc2n1CC(=O)Nc1ccc(C(F)(F)F)cc1Cl [WO2025049746, Example 56]	737	139
CCc1c(N2CCN(C(=O)C(F)(F)C3(O)CCC3)CC2)c(=O)n2nc(C3=CCOCC3)nc2n1CC(=O)Nc1ccc(C(F)(F)F)cc1Cl [WO2025049746, Example 57]	827	486

SMILES	IC50 [1] [nM]	IC50 [2] [nM]
CCc1c(N2CCN(C(=O)C3CCCC3O)CC2)c(=O)n2nc(C3=CCOCC3)nc2n1CC(=O)Nc1ccc(C(F)(F)F)cc1Cl (stereo unspecified) [WO2025049746, Example 58]	1260	187
CCc1c(N2CCN(S(C)(=O)=O)CC2)c(=O)n2nc(C3=CCOCC3)nc2n1CC(=O)Nc1ccc(C(F)(F)F)cc1Cl [WO2025049746, Example 59]	83.5	33.4
CCc1c(N2CCN(S(=O)(=O)C3CC3)CC2)c(=O)n2nc(C3=CCOCC3)nc2n1CC(=O)Nc1ccc(C(F)(F)F)cc1Cl [WO2025049746, Example 60]	38.5	44.5
CCc1c(N2CCN(C(=O)Cn3cncn3)CC2)c(=O)n2nc(C3=CCOCC3)nc2n1CC(=O)Nc1ccc(C(F)(F)F)cc1Cl [WO2025049746, Example 61]	125	66.7
CCc1c(N2CCN(C(=O)C(C)n3cncn3)CC2)c(=O)n2nc(C3=CCOCC3)nc2n1CC(=O)Nc1ccc(C(F)(F)F)cc1Cl (stereo unspecified) [WO2025049746, Example 62]	413	133
CCc1c(N2CCN(c3ccncn3)CC2)c(=O)n2nc(C3=CCOCC3)nc2n1CC(=O)Nc1ccc(C(F)(F)F)cc1Cl [WO2025049746, Example 66]	63.9	45.9
CCc1c(N2CCN(C(=O)c3ncnc(C)c3O)CC2)c(=O)n2nc(C3=CCOCC3)nc2n1CC(=O)NC12CC(C(F)(F)C(F)(F)F)(C1)C2 [WO2025049746, Example 69]	235	141
CCc1c(N2CCN(C(=O)c3ncnc(C)c3O)CC2)c(=O)n2nc(C3=CCOCC3)nc2n1CC(=O)NC12COC(C(F)(F)F)(C1)C2 [WO2025049746, Example 70]	852	748
CCc1c(N2CCN(C(=O)c3ncnc(C)c3O)CC2)c(=O)n2nc(C3=CCOCC3)nc2n1CC(=O)Nc1ccc(C(F)(F)C(F)(F)Cl)cc1 [WO2025049746, Example 71]	26.1	18.8
CCc1c(N2CCN(C(=O)c3ncnc(C)c3O)CC2)c(=O)n2nc(C3=CCOCC3)nc2n1CC(=O)Nc1ccc(OC(F)(F)Cl)cc1 [WO2025049746, Example 72]	14.6	12.2
CCc1c(N2CCN(C(=O)c3ncnc(C)c3O)CC2)c(=O)n2nc(N(C)C)nc2n1CC(=O)Nc1ccc(C(F)(F)F)cc1C [WO2025049746, Example 77]	62.1	44.3
CCc1c(N2CCN(C(=O)c3ncnc(C)c3O)CC2)c(=O)n2nc(C3CC3)nc2n1CC(=O)Nc1ccc(C(F)(F)F)cc1C [WO2025049746, Example 78]	194	70.1
CCc1c(N2CCN(C(=O)c3ncnc(C)c3O)CC2)c(=O)n2nc(C3CCC3)nc2n1CC(=O)Nc1ccc(C(F)(F)F)cc1C [WO2025049746, Example 79]	539	456
CCc1c(N2CCN(C(=O)c3nccc4nc[nH]c34)CC2)c(=O)n2nc(N(C)C)nc2n1CC(=O)Nc1ccc(C(F)(F)F)cc1Cl [WO2025049746, Example 80]	43.3	26.9
CCc1c(N2CCN(C(C)=O)CC2)c(=O)n2nc(N(C)C)nc2n1CC(=O)Nc1ccc(C(F)(F)F)cc1Cl [WO2025049746, Example 81]	533	174
CCc1c(N2CCN(C(=O)c3ccccc3NS(C)(=O)=O)CC2)c(=O)n2nc(N(C)C)nc2n1CC(=O)Nc1ccc(C(F)(F)F)cc1Cl [WO2025049746, Example 82]	58.9	40.7
CCc1c(N2CCN(C(=O)c3cn(C)nc3O)CC2)c(=O)n2nc(N(C)C)nc2n1CC(=O)Nc1ccc(C(F)(F)F)cc1Cl [WO2025049746, Example 83]	64.6	44.7
CCc1c(N2CCN(C(=O)c3nc4n(c(=O)c3OCc3ccccc3)CCOC4)CC2)c(=O)n2nc(N(C)C)nc2n1CC(=O)Nc1ccc(C(F)(F)F)cc1Cl [WO2025049746, Example 84]	40.7	38.4
CCc1c(N2CCN(C(=O)c3ccccc3NS(=O)(=O)C3CC3)CC2)c(=O)n2nc(N(C)C)nc2n1CC(=O)Nc1ccc(C(F)(F)F)cc1Cl [WO2025049746, Example 85]	35.1	28.2
CCc1c(N2CCN(C(=O)c3nc4n(c(=O)c3O)CCOC4)CC2)c(=O)n2nc(-c3ccc4c(c3)OCO4)nc2n1CC(=O)Nc1ccc(C(F)(F)F)cc1Cl [WO2025049746, Example 86]	21.5	21.3
CCc1c(N2CCN(C(=O)c3ccccc3NS(=O)(=O)C3CC3)CC2)c(=O)n2nc(-c3ccc4c(c3)OCO4)nc2n1CC(=O)Nc1ccc(C(F)(F)F)cc1Cl [WO2025049746, Example 87]	159	138
